Reference: patent publication US20140163012A1, “PYRIDO-/AZEPINO-BENZOFURAN AND PYRIDO-/AZEPINO-BENZOTHIOPHENE MCH-1 ANTAGONISTS, METHODS OF MAKING, AND USE THEREOF” (Albany Molecular Research, Inc., priority 2012, published 2014)
Where a name gives a salt, the structure may show the parent alone.

Target: human MCH-1 receptor (Homo sapiens, UniProt Q99705)
Test: Binding assay for human melanin-concentrating hormone (MCH-1) receptor, radioligand displacement on CHO-K1 cell membranes
Settings: for inhibition at 1 µM: read-out: MCH1 % inhibition @ 1 uM
Experimental: Nonspecific binding was determined in the presence of 50 μM 1-(5-(4-cyanophenyl)bicyclo[3.1.0]hexan-2-yl)-3-(4-fluoro-3-(trifluoromethyl)phenyl)-1-(3-(4-methylpiperazin-1-yl)propyl)urea. […] The filters were counted for radioactivity in a liquid scintillation counter (Tri-Carb 2100TR, Packard) using a scintillation cocktail (Ultima Gold MV, Perkin Elmer).
The results are expressed as a percent inhibition of the control radioligand specific binding. The IC50 value (concentration causing a half-maximal inhibition of control specific binding) and Hill coefficient (nH) were determined by non-linear regression analysis of the competition curve using Hill equation curve fitting.

human MCH-1 receptor, sequence (Q99705 whole entry): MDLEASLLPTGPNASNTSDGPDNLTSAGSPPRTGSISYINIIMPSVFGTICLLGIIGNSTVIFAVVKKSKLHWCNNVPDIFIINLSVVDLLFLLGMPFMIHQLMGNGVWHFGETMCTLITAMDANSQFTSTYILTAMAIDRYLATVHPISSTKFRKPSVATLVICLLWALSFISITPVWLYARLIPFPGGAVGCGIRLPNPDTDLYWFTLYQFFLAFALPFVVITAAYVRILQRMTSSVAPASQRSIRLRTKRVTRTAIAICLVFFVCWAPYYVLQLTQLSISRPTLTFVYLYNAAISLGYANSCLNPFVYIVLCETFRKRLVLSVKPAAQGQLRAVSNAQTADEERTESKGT

Ki [nM]	inhibition at 1 µM [%]	SMILES
4.5	–	O=c1cc(OCc2ccc(F)cn2)ccn1-c1ccc2c3c(oc2c1)CCCNC3 [Example 37, 4-((5-Fluoropyridin-2-yl)methoxy)-1-(2,3,4,5-tetrahydro-1H-benzofuro[3,2-c]azepin-8-yl)pyridin-2(1H)-one hydrochloride]
116	–	Cc1ccc(COc2ccn(-c3ccc4c5c(oc4c3)CCCN(C)C5)c(=O)c2)cn1 [Example 85, 1-(2-Methyl-2,3,4,5-tetrahydro-1H-benzofuro[3,2-c]azepin-8-yl)-4-((6-methylpyridin-3-yl)methoxy)pyridin-2(1H)-one hydrochloride]
29	–	O=c1cc(OCc2ccc(C(F)(F)F)nc2)ccn1-c1ccc2c3c(oc2c1)CCCNC3 [Example 45, 1-(2,3,4,5-Tetrahydro-1H-benzofuro[3,2-c]azepin-8-yl)-4-((6-(trifluoromethyl)pyridin-3-yl)methoxy)pyridin-2(1H)-one hydrochloride]
46	–	CC(=O)N1CCc2oc3cc(-n4ccc(OCc5ccc(F)cn5)cc4=O)ccc3c2C1 [Example 29, 1-(2-Acetyl-1,2,3,4-tetrahydrobenzofuro[3,2-c]pyridin-7-yl)-4-((5-fluoropyridin-2-yl)methoxy)pyridin-2(1H)-one]
62	–	CC(C)N1CCCc2oc3cc(-n4ccc(OCc5cccc(C(F)(F)F)n5)cc4=O)ccc3c2C1 [Example 81, 1-(2-Isopropyl-2,3,4,5-tetrahydro-1H-benzofuro[3,2-c]azepin-8-yl)-4-((6-(trifluoromethyl)pyridin-2-yl)methoxy)pyridin-2(1H)-one hydrochloride]
9.8	–	CC(C)N1CCc2oc3cc(-n4ccc(OCc5ccc(F)cn5)cc4=O)ccc3c2C1 [Example 28, 4-((5-Fluoropyridin-2-yl)methoxy)-1-(2-isopropyl-1,2,3,4-tetrahydrobenzofuro[3,2-c]pyridin-7-yl)pyridin-2(1H-one hydrochloride]
20	–	O=c1cc(CCc2ccc(F)cn2)ccn1-c1ccc2c3c(sc2c1)CNCC3 [Example 126, 4-((5-Fluoropyridin-2-yl)ethyl)-1-(1,2,3,4-tetrahydrobenzothieno[2,3-c]pyridin-7-yl)pyridin-2(1H)-one hydrochloride]
29	–	CN1CCc2oc3cc(-n4ccc(OCc5ccc(C(F)(F)F)nc5)cc4=O)ccc3c2CC1 [Example 84, 1-(3-Methyl-2,3,4,5-tetrahydro-1H-benzofuro[2,3-d]azepin-8-yl)-4-((6-(trifluoromethyl)pyridin-3-yl)methoxy)pyridin-2(1H)-one hydrochloride]
47	–	Cc1ccc(COc2ccn(-c3ccc4c5c(oc4c3)CCCNC5)c(=O)c2)cn1 [Example 46, 4-((6-Methylpyridin-3-yl)methoxy)-1-(2,3,4,5-tetrahydro-1H-benzofuro[3,2-c]azepin-8-yl)pyridin-2(1H)-one hydrochloride]
3	–	O=c1cc(OCc2ccc(Cl)cn2)ccn1-c1ccc2c3c(oc2c1)CCCNC3 [Example 38, 4-((5-Chloropyridin-2-yl)methoxy)-1-(2,3,4,5-tetrahydro-1H-benzofuro[3,2-c]azepin-8-yl)pyridin-2(1H)-one hydrochloride]
4.2	–	O=c1cc(CCc2ccc(Cl)cn2)ccn1-c1ccc2c3c(oc2c1)CCCNC3 [Example 107, 4-(2-(5-Chloropyridin-2-yl)ethyl)-1-(2,3,4,5-tetrahydro-1H-benzofuro[3,2-c]azepin-8-yl)pyridin-2(1H)-one hydrochloride]
23	–	O=c1cc(OCc2cccc(C(F)(F)F)n2)ccn1-c1ccc2c3c(oc2c1)CCNC3 [Example 31, 1-(1,2,3,4-Tetrahydrobenzofuro[3,2-c]pyridin-7-yl)-4-((6-(trifluoromethyl)pyridin-2-yl)methoxy)pyridin-2(1H)-one hydrochloride]
53	–	CN1CCCc2oc3cc(-n4ccc(OCc5ccc(C(F)(F)F)nc5)cc4=O)ccc3c2C1 [Example 86, 1-(2-Methyl-2,3,4,5-tetrahydro-1H-benzofuro[3,2-c]azepin-8-yl)-4-((6-(trifluoromethyl)pyridin-3-yl)methoxy)pyridin-2(1H)-one hydrochloride]
4.5	–	O=c1cc(-c2ccc(C(F)(F)F)cc2)ccn1-c1ccc2c3c(oc2c1)CCCNC3 [Example 48, 1-(2,3,4,5-Tetrahydro-1H-benzofuro[3,2-c]azepin-8-yl)-4-(4-(trifluoromethyl)phenyl)pyridin-2(1H)-one hydrochloride]
153	–	O=C1CN(CCc2ccc(Cl)cn2)CCN1c1ccc2c3c(oc2c1)CCNCC3 [Example 98, 4-(2-(5-Chloropyridin-2-yl)ethyl)-1-(2,3,4,5-tetrahydro-1H-benzofuro[2,3-d]azepin-8-yl)piperazin-2-one hydrochloride]
17	–	O=C1CN(CCc2ccc(Cl)cc2)CCN1c1ccc2c3c(oc2c1)CCCNC3 [Example 89, 4-(4-Chlorophenethyl)-1-(2,3,4,5-tetrahydro-1H-benzofuro[3,2-c]azepin-8-yl)piperazin-2-one hydrochloride]
1310	–	O=c1cc(-c2ccc(C(F)(F)F)nc2)ccn1-c1ccc2c3c(oc2c1)CNCC3 [Example 4, 1′-(1,2,3,4-Tetrahydrobenzofuro[2,3-c]pyridin-7-yl)-6-(trifluoromethyl)-[3,4′-bipyridin]-2′(1′H)-one hydrochloride]

Continued, molecule first:

SMILES	Ki [nM]	inhibition at 1 µM [%]
O=C1CN(CCc2ccc(F)cn2)CCN1c1ccc2c3c(sc2c1)CNCC3 [Example 60, 4-(2-(5-Fluoropyridin-2-yl)ethyl)-1-(1,2,3,4-tetrahydrobenzothieno[2,3-c]pyridin-7-yl)piperazin-2-one hydrochloride]	118	–
O=c1cc(OCc2ccc(F)cn2)ccn1-c1ccc2c3c(sc2c1)CN(CCF)CC3 [Example 59, 1-(2-(2-Fluoroethyl)-1,2,3,4-tetrahydrobenzothieno[2,3-c]pyridin-7-yl)-4-((5-fluoropyridin-2-yl)methoxy)pyridin-2(1H)-one hydrochloride]	36	–
O=C1NCCc2c1sc1cc(-n3ccc(OCc4ccc(F)cn4)cc3=O)ccc21 [Example 54, 7-(4-((5-Fluoropyridin-2-yl)methoxy)-2-oxopyridin-1(2H)-yl)-3,4-dihydrobenzothieno[2,3-c]pyridin-1(2H)-one]	–	60
O=C1CN(CCc2ccc(Cl)cn2)CCN1c1ccc2c3c(sc2c1)CNCC3 [Example 121, 4-(2-(5-Chloropyridin-2-yl)ethyl)-1-(1,2,3,4-tetrahydrobenzothieno[2,3-c]pyridin-7-yl)piperazin-2-one hydrochloride]	44	–
CC(C)N1CCCc2oc3cc(N4CCN(CCc5ccc(Cl)cc5)CC4=O)ccc3c2C1 [Example 96, 4-(4-Chlorophenethyl)-1-(2-isopropyl-2,3,4,5-tetrahydro-1H-benzofuro[3,2-c]azepin-8-yl)piperazin-2-one hydrochloride]	150	–
CN1CCc2oc3cc(-n4ccc(OCc5ccccc5)cc4=O)ccc3c2C1 [Example 27, 4-(Benzyloxy)-1-(2-methyl-1,2,3,4-tetrahydrobenzofuro[3,2-c]pyridin-7-yl)pyridin-2(1H)-one hydrochloride]	8.1	–
O=c1cc(OCc2ccccc2)ccn1-c1ccc2oc3c(c2c1)CCNCC3 [Example 77, 4-(Benzyloxy)-1-(2,3,4,5-tetrahydro-1H-benzofuro[2,3-d]azepin-9-yl)pyridin-2(1H)-one hydrochloride]	44	–
CN1CCCc2oc3cc(-n4ccc(-c5ccc(C(F)(F)F)cc5)cc4=O)ccc3c2C1 [Example 82, 1-(2-Methyl-2,3,4,5-tetrahydro-1H-benzofuro[3,2-c]azepin-8-yl)-4-(4-(trifluoromethyl)phenyl)pyridin-2(1H)-one hydrochloride]	8.2	–
CC(=O)N1CCc2c(sc3cc(-n4ccc(OCc5ccc(F)cn5)cc4=O)ccc23)C1 [Example 53, 1-(2-Acetyl-1,2,3,4-tetrahydrobenzothieno[2,3-c]pyridin-7-yl)-4-((5-fluoropyridin-2-yl)methoxy)pyridin-2(1H)-one]	39	–
O=c1cc(OCc2ccccc2)ccn1-c1ccc2c3c(sc2c1)CNCC3 [Example 15, 4-(Benzyloxy)-1-(1,2,3,4-tetrahydrobenzothieno[2,3-c]pyridin-7-yl)pyridin-2(1H)-one]	4	–
O=c1cc(OCc2ccc(F)cn2)ccn1-c1ccc2c3c(sc2c1)CCNCC3 [Example 21, 4-((5-Fluoropyridin-2-yl)methoxy)-1-(2,3,4,5-tetrahydro-1H-benzothieno[2,3-d]azepin-8-yl)pyridin-2(1H)-one]	3.8	–
O=c1cc(OCc2ccc(C(F)(F)F)nc2)ccn1-c1ccc2c3c(sc2c1)CNCC3 [Example 64, 1-(1,2,3,4-Tetrahydrobenzothieno[2,3-c]pyridin-7-yl)-4-((6-(trifluoromethyl)pyridin-3-yl)methoxy)pyridin-2(1H)-one hydrochloride]	48	–
C[C@H]1Cc2oc3cc(-n4ccc(OCc5ccccn5)cc4=O)ccc3c2CN1 [Example 34, (S)-1-(3-Methyl-1,2,3,4-tetrahydrobenzofuro[3,2-c]pyridin-7-yl)-4-(pyridin-2-ylmethoxy)pyridin-2(1H)-one hydrochloride]	38	–
CN1CCCc2oc3cc(N4CCN(CCc5ccc(F)cn5)CC4=O)ccc3c2C1 [Example 95, 4-(2-(5-Fluoropyridin-2-yl)ethyl)-1-(2-methyl-2,3,4,5-tetrahydro-1H-benzofuro[3,2-c]azepin-8-yl)piperazin-2-one hydrochloride]	–	62
O=c1cc(OCc2ccc(F)cn2)ccn1-c1ccc2c3c(oc2c1)CC1CCC3N1 (stereo not shown) [Example 129, 4-((5-Fluoropyridin-2-yl)methoxy)-1-(7,8,9,10-tetrahydro-6H-7,10-epiminocyclohepta[b]benzofuran-3-yl)pyridin-2(1H)-one hydrochloride]	14	–
Cc1ccc(COc2ccn(-c3ccc4c5c(sc4c3)CNCC5)c(=O)c2)cn1 [Example 62, 4-((6-Methylpyridin-3-yl)methoxy)-1-(1,2,3,4-tetrahydrobenzothieno[2,3-c]pyridin-7-yl)pyridin-2(1H)-one hydrochloride]	103	–
CCN1CCc2oc3cc(-n4ccc(OCc5ccccc5)cc4=O)ccc3c2C1 [Example 26, 4-(Benzyloxy)-1-(2-ethyl-1,2,3,4-tetrahydrobenzofuro[3,2-c]pyridin-7-yl)pyridin-2(1H)-one]	4.9	–
